The test has as its target T1, eIF4A1 (Homo sapiens, UniProt P60842).
T1 construct: recombinant eIF4A1 from pET19bm, 10-histidine tract at the N-terminal with Prescission Protease site, expressed in E. coli Rosetta Star
In words: fluorescence quenching of purified recombinant eIF4A ([…] auraptene). The test is classed as binding.

T1 sequence (P60842 2-406): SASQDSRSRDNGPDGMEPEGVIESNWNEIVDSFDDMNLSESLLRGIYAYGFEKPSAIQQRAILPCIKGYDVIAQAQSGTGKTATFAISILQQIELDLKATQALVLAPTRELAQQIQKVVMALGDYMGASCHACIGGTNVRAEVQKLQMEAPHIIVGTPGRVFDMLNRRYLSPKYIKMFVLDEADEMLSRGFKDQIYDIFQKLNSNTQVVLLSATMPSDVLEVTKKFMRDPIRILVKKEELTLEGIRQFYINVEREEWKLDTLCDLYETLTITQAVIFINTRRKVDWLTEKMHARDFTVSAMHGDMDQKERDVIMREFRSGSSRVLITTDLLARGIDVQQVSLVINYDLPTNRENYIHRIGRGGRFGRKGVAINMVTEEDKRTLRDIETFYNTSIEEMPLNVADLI

As to `CC(C)=CCC/C(C)=C/COc1ccc2ccc(=O)oc2c1` [Aur, auraptene], the “fluorescence quenching of purified recombinant eIF4A (50 and 100 μM auraptene)” value is on record as “a reduction in the emission intensity was observed, resulting from a quenching phenomenon, suggesting that auraptene binds with the eIF4A”.

Values taken from publication PMC11435248, “Auraptene Boosts the Efficacy of the Tamoxifen Metabolites Endoxifen and 4-OH-Tamoxifen in a Chemoresistant ER+ Breast Cancer Model” (Pharmaceutics, 2024).
